The values below come from US11931451B2, “Skin lightening compounds from fruit seed extracts” (WiSys Technology Foundation, Inc., priority 2016, dated 2024).

Data set [1] can be described thus: Solubility of extracts and reference compounds in solvents / assay medium. The data set is classed as physicochemical. The source says: A 2.5 gram sample of a red raspberry seed extract in a dry powder form was split into two fractions, one combined 1.25 grams of the dry extract with 11.25 grams of water to create a 10% aqueous solution of the extract. […] Combining 1.25 grams of the dry extract with about 11.25 grams of Isopropyl alcohol (91%) produced an about 10% alcohol solution.
Using pure water was explored in extraction experiments with cranberry seed powder. The advantages of using water were essentially zero cost and toxicity. […] The limitations of using water were that it gave quite low yields in extractions at room temperature and only dissolved the most polar compounds from the seed powders, leaving most of the medium polarity materials behind. It is possible that this could be improved by heating. […] Simply filtering the mixture through inexpensive filter paper by gravity or mild vacuum was unsuccessful. One solution that worked was mixing in filtering media (diatomaceous earth) and then vacuum filtering through a bed of the same filtering medium. To completely clarify the mixture, an additional treatment with activated carbon and further vacuum filtering through a bed of diatomaceous earth was effective. Given the limitations of water extraction, it was not used extensively. One exception was the use of sodium hydroxide solutions in water to extract pomegranate seed powder, which contained significant amounts of the targeted compound ellagic acid. […] Therefore, 1 M aqueous sodium hydroxide solution was used to extract this material from pomegranate seed powder. After filtering away the solid seed material the solution was acidified to pH=4 by addition of 1 N HCl. A small amount of solid developed, which was filtered with some difficulties.
The extracts in Tables 2 and 3, prepared from 70:30 methanol/water, were tested for their ability to inhibit tyrosinase at concentrations of 1.0 mg/mL, 0.1 mg/mL, 0.01 mg/mL, and in some cases 0.001 mg/mL. For comparison several other known tyrosinase inhibitors including kojic acid, alpha-arbutin, beta-arbutin, hydroquinone, and quercetin were tested. Kojic acid is often used in tyrosinase inhibition studies as a benchmark inhibitor for comparison with other inhibitors. I included beta-arbutin and hydroquinone due to their relevance in skin whitening applications. Additionally, several commercial skin whitening agents were also tested. These included a product called Radian Skin from BASF, and an arbutin material sold by the company Presperse. […] Even highly dilute samples of ellagic acid were not sufficiently soluble. […] Finally, a mixture of red raspberry and tomato extracts (FIG. 10) was tested to look for possible synergistic effects in mixtures on two quite different materials. […]

Data set [2] deals with tyrosinase enzyme (from mushroom). Briefly: Tyrosinase inhibition assay (L-DOPA to dopachrome, absorbance at 475 nm). The conditions noted are these: 0.001-1 mg/mL, FIGS. 11-12. The data set is classed as biochemical. The method, then: Extracts were tested for their ability to inhibit the enzyme tyrosinase. This enzyme catalyzes the air oxidation of L-DOPA (colorless) to the compound dopachrome, which is a highly colored intermediate in the production of melanin. The dopachrome molecule absorbs strongly at 475 nm. So, measuring the rate of change of absorption at this wavelength using UV/visible spectroscopy can easily assess the enzyme's activity. The tyrosinase enzyme (from mushroom) was purchased from Sigma-Aldrich as a lyophilized powder with an activity of 5771 units per mg of solid (a unit of activity is defined as the rate at which the enzyme catalyzes the reaction of a standard substrate at a standard concentration). […] Next, the enzyme solution was added (500 μL), the cuvette was covered with a piece of Parafilm and inverted twice to thoroughly mix the solutions, and immediately after the cuvette was placed in a UV/visible spectrometer and absorbance was measured at 475 nm every second for 60 seconds. The slope of the line formed by graphing change in absorbance versus time gave the rate in units of AA/second. […] Percentage inhibition values were calculated by taking the rate of the blank run with no inhibitor minus the rate of the inhibited sample and then dividing that value by the blank rate and multiplying by 100. […]

With `O=c1oc2c(O)c(O)cc3c(=O)oc4c(O)c(O)cc1c4c23` [ellagic acid], the “solubility (medium not stated)” value in data set [1] is recorded as “highly insoluble”. Moreover, the values for the solubility in water entry in data set [1] (high pH) and in data set [1] (neutral pH) were “very water soluble” and “only slightly soluble”, respectively. The “solubility in the enzyme assay” value in data set [1] (tyrosinase assay medium) was “highly insoluble”.
Turning to `O=c1cc(CO)occ1O` [kojic acid], in data set [2], the “tyrosinase inhibition strength (in words, from dose-response curves)” value is reported as “strongest inhibitor”.
Regarding `O=c1c(O)c(-c2ccc(O)c(O)c2)oc2cc(O)cc(O)c12` [quercetin], in data set [2], the “tyrosinase inhibition strength (in words, from dose-response curves)” value is listed as “considerably more potent than the others”.
